Among the data in paper PMC3362575, “Synthesis and Biological Evaluation of Phenanthrenes as Cytotoxic Agents with Pharmacophore Modeling and ChemGPS-NP Prediction as Topo II Inhibitors” (PLoS ONE, 2012) are IC50, MCF-7 activity class (from IC50) and melting point values, retold here.

Structures are written as SMILES. ≈ marks a conversion by molar mass, not a printed value. Like-named read-outs stand apart in the source and are kept apart here.

The subject of one data set is HepG2. Put plainly: MTT cytotoxicity assay, HepG2. Format: cell-based, human. The settings on record: Homo sapiens. As for the experimental part: (§1) The cytotoxic assay of 11 naturally occurring and 19 synthesized phenanthrenes was carried out on a diverse set of human liver (HepG2 and Hep3B), oral (Ca9-22), lung (A549) and breast (MEA-MB-231 and MCF7) cancer cell lines, and a human fetal lung fibroblast (MRC-5) cell line (Tables 1 and 2).
(§2) Compounds were tested against human liver (HepG2 and Hep3B), oral (Ca9-22), lung (A549), breast (MEA-MB-231 and MCF7) cancer cell lines, and the human fetal lung fibroblast (MRC-5) cell line using an established colorimetric MTT assay protocol. The absorbance was measured at 550 nm using a microplate reader. The IC50 is the concentration of agent that reduced cell growth by 50% under the experimental conditions.

The next data set has as its system Hep3B. The experiment in a line: MTT cytotoxicity assay, Hep3B. The settings on record: Homo sapiens, Hep3B. Type of data set: cell-based, human. As to the method: as §1, §2
In another data set the test system is Ca9-22. Put plainly: MTT cytotoxicity assay, Ca9-22. Format: cell-based, human. The following applies: Homo sapiens. As to the method:
as §1, §2

In the next data set the test system is A549. Put plainly: MTT cytotoxicity assay, A549. The settings on record: Homo sapiens. Format: cell-based, human. As to the method: as §1, §2
(In general: Tetrazolium assays rely on reduction of a dye to a coloured formazan, in cell work by metabolically active cells.)

Another data set concerns MCF-7. Put plainly: MTT cytotoxicity assay, MCF-7. Format: cell-based, human. The settings on record: Homo sapiens; for IC50: MTT; for MCF-7 activity class (from IC50): MCF7, Table S3, read-out: Scale Exptl. (MCF-7 activity class). As to the method:
as §1, §2
The pharmacophore modeling with Catalyst HypoGen was performed via Discovery Studio 2.1 (Accelrys, San Diego, CA, USA). Twenty-nine phenanthrene derivatives were collected from the natural plant, C. arisanensis, and from chemical synthesis (Figure 2). Cytotoxicity against MCF-7 cells was determined by the MTT assay and the concentration (µg/mL) of test compound which inhibited 50% of the cancer cells (IC50) was used in the generation of the pharmacophore model. An IC50 value of >20 µg/mL was defined as 20 µg/mL. All experimental IC50 values spanned about 2–3 orders of magnitude from 0.09 to 20 µg/mL. The 2D/3D structures of compounds were generated using ChemBioOffice 2008 (Cambridge Scientic Computing, Cambridge, Massachusetts, USA) and then optimized in a Dreiding force field. The conformational ensemble of each compound was generated using the best conformational analysis method based on a CHARMM force field with a 20 kcal/mol energy threshold above the global minimum. A maximum limit of 255 conformations was used to cover maximum conformational space. The best 3D arrangements of chemical functionalities should explain the activity variations among the 29 compounds. Thirty runs with different parameters were performed for the best pharmacophore hypothesis. Four chemical features, including hydrogen-bond acceptor (HBA), hydrogen-bond donor (HBD), hydrophobic (HYD), and aromatic ring (AR) features, were also tested during the building of pharmacophore hypotheses (Table S1; Text S1). The best hypotheses were selected via a correlation and a cost analysis in Catalyst HypoGen.

The test system of a further data set is MDA-MB-231. Put plainly: MTT cytotoxicity assay, MDA-MB-231. Format: cell-based, human. The following applies: Homo sapiens. As to the method: as §1, §2
The next data set relates to MRC-5. The experiment in a line: MTT cytotoxicity assay, MRC-5 fetal lung fibroblast. Type of data set: cell-based, human. The settings on record: Homo sapiens, normal fetal lung fibroblast. As to the method: as §1, §2
The subject of a further data set is human cancer cell lines. Put plainly: MTT cytotoxicity assay, ranges over the cancer cell line panel. Format: cell-based. The settings on record: Homo sapiens. As to the method:
as §1, §2

Where [1] appears, read: HepG2, Table 2, synthesized phenanthrenes.
Where [2] appears, read: Table 2, synthesized phenanthrenes.
Setting [3] is: Ca9-22, Table 2, synthesized phenanthrenes.
Where [4] appears, read: A549, Table 2, synthesized phenanthrenes.
Where [5] appears, read: MCF7, Table 2, synthesized phenanthrenes.
[6] abbreviates: MDA-MB-231, Table 2, synthesized phenanthrenes.
[7] abbreviates: MRC5, Table 2, synthesized phenanthrenes.
Where [8] appears, read: HepG2, range over five cancer cell lines, not including HepG2, read-out: IC50 against five cancer cell lines.
[9] abbreviates: range over the cancer cell lines tested, read-out: IC50 against various / all human cancer cell lines.

For `COC1=CC(=O)c2ccc3cc(OC)c(OC)c(OC(C)=O)c3c2C1=O` [Compound 7a, 5-Acetoxy-3,6,7-trimethoxy-1,4-phenanthrenequinone], the IC50 in the data set on HepG2 (setting [1]) was 11.3 ± 0.14 µg/mL (≈ 31.7 µM); in the data set on Hep3B (setting [2]), 0.36 ± 0.14 µg/mL (≈ 1.01 µM); in the data set with Ca9-22 (setting [3]), 0.84 ± 0.05 µg/mL (≈ 2.36 µM); in the data set on A549 (setting [4]) it was 0.6 ± 0.01 µg/mL (≈ 1.68 µM); in the data set on MCF-7 (setting [5]) it was 0.16 µg/mL (≈ 0.449 µM); with MDA-MB-231 (setting [6]), 1.13 ± 0.05 µg/mL (≈ 3.17 µM). Besides, the figures for the IC50 in the data set on MRC-5 (setting [7]), in the data set with human cancer cell lines (setting [8]) and in the data set on human cancer cell lines (setting [9]) were 1.14 ± 0.01 µg/mL (≈ 3.2 µM), 0.16 to 1.66 µg/mL (≈ 0.449 to 4.66 µM) and 0.08 to 1.66 µg/mL (≈ 0.225 to 4.66 µM), respectively. For the same compound, the MCF-7 activity class (from IC50) in the data set on MCF-7 is less than 1 µg/mL.
Turning to `COC1=CC(=O)c2ccc3cc(OC)cc(OC(C)=O)c3c2C1=O` [Compound 7b, 5-acetoxy-3,7-dimethoxy-1,4-phenanthrenequinone], the IC50 was 13.2 ± 0.25 µg/mL (≈ 40.5 µM) in the data set on HepG2 (setting [1]); 0.6 ± 0.11 µg/mL (≈ 1.84 µM) in the data set on Hep3B (setting [2]); 1.55 ± 0.2 µg/mL (≈ 4.75 µM) with Ca9-22 (setting [3]); 1.66 ± 0.01 µg/mL (≈ 5.09 µM) in the data set on A549 (setting [4]); 0.53 ± 0.03 µg/mL (≈ 1.62 µM) with MCF-7 (setting [5]); 1.61 ± 0.04 µg/mL (≈ 4.93 µM) with MDA-MB-231 (setting [6]). In addition, the values for the IC50 with MRC-5 (setting [7]), with human cancer cell lines (setting [8]) and with human cancer cell lines (setting [9]) were 2.64 ± 0.06 µg/mL (≈ 8.09 µM), 0.16 to 1.66 µg/mL (≈ 0.49 to 5.09 µM) and 0.08 to 1.66 µg/mL (≈ 0.245 to 5.09 µM), respectively. For the same compound, the MCF-7 activity class (from IC50) in the data set on MCF-7 was less than 1 µg/mL.
With `COc1cc(OC)c2c(ccc3c(OC)ccc(O)c32)c1` [Compound 8b, 4-Hydroxy-1,5,7-trimethoxy-phenanthrene], the IC50 was 10.1 ± 0.66 µg/mL (≈ 35.5 µM) in the data set with HepG2 (setting [1]); 6.93 ± 0.19 µg/mL (≈ 24.4 µM) with Hep3B (setting [2]); 12.1 ± 0.37 µg/mL (≈ 42.5 µM) in the data set with Ca9-22 (setting [3]); 19.6 ± 0.22 µg/mL (≈ 68.9 µM) in the data set with A549 (setting [4]); 19.31 ± 0.08 µg/mL (≈ 67.9 µM) in the data set on MCF-7 (setting [5]); greater than 20 µg/mL in the data set on MDA-MB-231 (setting [6]). Further, the IC50 with MRC-5 (setting [7]) is greater than 20 µg/mL. Also, the MCF-7 activity class (from IC50) in the data set on MCF-7 lay within 1 to 20 µg/mL.
As to `COc1cc2ccc3c(OC)ccc(OC)c3c2c(O)c1OC` [Compound 9a, 5-hydroxy-1,4,6,7-tetramethoxy-phenanthrene], the IC50 with HepG2 (setting [1]), in the data set with Hep3B (setting [2]), in the data set on Ca9-22 (setting [3]), in the data set on A549 (setting [4]), in the data set on MCF-7 (setting [5]) and in the data set on MDA-MB-231 (setting [6]) was greater than 20 µg/mL in each case. In the data set with MRC-5 (setting [7]), this compound yielded an IC50 greater than 20 µg/mL. For the same compound, the MCF-7 activity class (from IC50) with MCF-7 was greater than 20 µg/mL.
The melting point is the temperature, or range, at which the solid turns liquid. Regarding `COc1cc(O)c2c(ccc3c(OC)ccc(OC)c32)c1` [Compound 9b, 5-hydroxy-1,4,7-trimethoxy-phenanthrene], the melting point is 71 °C. Besides, the IC50 in the data set on HepG2 (setting [1]) is greater than 20 µg/mL. For the same compound, in the data set on Hep3B (setting [2]), the IC50 was greater than 20 µg/mL. The compound also returned an IC50 in the data set with Ca9-22 (setting [3]) greater than 20 µg/mL. This compound also gave an IC50 in the data set with A549 (setting [4]) greater than 20 µg/mL. Also, the IC50 in the data set with MCF-7 (setting [5]) is greater than 20 µg/mL. In the data set with MCF-7, the MCF-7 activity class (from IC50) is greater than 20 µg/mL. The IC50 in the data set on MDA-MB-231 (setting [6]) was greater than 20 µg/mL. The same compound registered an IC50 in the data set with MRC-5 (setting [7]) greater than 20 µg/mL.
Consider `COc1cccc2c1C(=O)c1c(O)c3c(c(O)c1C2=O)C[C@@](O)(C(=O)CO)C[C@@H]3O[C@H]1C[C@H](N)[C@H](O)[C@H](C)O1` [Doxo, Doxorubicin, reference compound], for which the IC50 amounted to 0.22 ± 0.04 µg/mL (≈ 0.405 µM) in the data set on HepG2 (HepG2, Table 1, natural phenanthrenes); 0.49 µg/mL (≈ 0.902 µM) in the data set on Hep3B (Table 1, natural phenanthrenes); 0.42 ± 0.01 µg/mL (≈ 0.773 µM) in the data set with Hep3B (setting [2]); 0.16 ± 0.02 µg/mL (≈ 0.294 µM) in the data set on Ca9-22 (Ca9-22, Table 1, natural phenanthrenes); 0.14 ± 0.04 µg/mL (≈ 0.258 µM) in the data set on Ca9-22 (setting [3]); 0.81 ± 0.04 µg/mL (≈ 1.49 µM) with A549 (A549, Table 1, natural phenanthrenes). The IC50 with A549 (setting [4]) turned out to be 0.63 ± 0.15 µg/mL (≈ 1.16 µM); with MCF-7 (MCF7, Table 1, natural phenanthrenes), 0.67 ± 0.03 µg/mL (≈ 1.23 µM); in the data set with MCF-7 (setting [5]) it was 0.35 ± 0.09 µg/mL (≈ 0.644 µM); with MDA-MB-231 (MDA-MB-231, Table 1, natural phenanthrenes), 0.74 ± 0.01 µg/mL (≈ 1.36 µM); with MDA-MB-231 (setting [6]), 1.12 ± 0.05 µg/mL (≈ 2.06 µM); with MRC-5 (MRC5, Table 1, natural phenanthrenes) it was 1.94 ± 0.02 µg/mL (≈ 3.57 µM).
